The subject of this assay is MCPP-induced Hypolocomotion. In words: Reversal of MCPP-induced Hypolocomotion. Type of assay: in vivo. The following applies: po, procedure of WO 94/04533, read-out: ID50 (the source's name). As to the method: Reversal of MCPP-induced Hypolocomotion
Compounds were tested following the procedure outlined in WO 94/04533. The compound of example 8 has an ID50 of 10.0 mg/kg p.o.

Experimental findings from patent US5972937A, “Heterocyclic compounds possessing 5HT2C receptor antagonist activity” (SmithKline Beecham p.l.c., priority 1995, dated 1999) are described below.

SMILES strings stand for the structures.

Consider `CSc1cc2c(cc1C(F)(F)F)N(C(=O)Nc1cccc(C(=O)NCCN(C)C)c1)CC2` [Example 8, 5-Methylthio-6-trifluoromethyl-1-[3-[(2-dimethylaminoethyl)carbamoyl]phenylcarbamoyl]indoline], for which the ED50 came to 10 mg/kg.
